Experimental data published in patent US10369187B2, “Peptide regulators of JNK family kinases” (Vanderbilt University, priority 2017, dated 2019).

Tests used:
[1] = tested on: ARR3-dependent activation of the JNK pathway; test: Suppression of ARR3-dependent JNK activation (peptide co-expressed with full-length ARR3, Western blot); assay type: cell-based; details: for JNK activity on co-expression with full-length ARR3, comparison of shorter peptides: Western blot
Description: FIG. 9. The ARR3-derived T1A15 peptide is capable of reducing ARR3-dependent activation of the JNK pathway. (A) Dose-dependent action of Venus-T1A15 on the JNK activity. Upper blot panel—T1A15 was expressed at increasing concentration with full-length ARR3. Cells expressing GFP (negative control) and full-length ARR3 only (positive control) are shown for comparison. Note the reduced activity of HA-JNK3α2 expressed in the cells as well as that of endogenous INK isoforms (p54 and p46 bands). The lower panels show corresponding expression of GFP, full-length ARR3 and increasing concentrations of Venus-T1A15. (B) Comparison of the activity of shorter ARR3-derived peptides. Three shorter peptides, T1A15, T1A14, and T1A13, were co-expressed with full-length ARR3, and the INK activity assessed by western blot.
First, the action of arrestin-3-derived peptides expressed in cultured cells on JNK3 activity was investigated.

[2] = tested on: WT hemiparkinsonian mice; test: L-DOPA-induced rotations in hemiparkinsonian WT mice; assay type: in vivo, mouse; details: peptide expressed under CMV promoter in striatal neurons, versus GFP
Description: FIG. 11. Inhibition of L-DOPA-induced rotations in WT mice by ARR3-derived peptide T1A15 inhibiting JNK3. The arrestin-3-derived peptide T1A15 expressed under CMV promoter in striatal neurons inhibited rotations in WT mice as compared to WT mice expressing GFP.
(§1) The mice were rendered hemiparkinsonian by the unilateral injection of the dopaminergic neurotoxin 6-hydroxydopamine. Such animals develop contralateral rotations of increasing frequency in response to repeated administration of L-DOPA. ARR3 knockout mice (KO) have lower propensity than wild type (WT) animals to such rotations.

[3] = tested on: ASK1-MKK4/7-JNK3 signaling cascade; test: In cell JNK3 activation assay (co-expression with HA-ASK1 and HA-JNK3α2, phospho-JNK Western blot); assay type: cell-based, African green monkey; details: for in cell JNK3α2 activation (phospho-JNK3 densitometry): Example 2, YFP/Venus constructs with HA-ASK1, HA-JNK3α2 in COS7 cells; for JNK3 phosphorylation in cells, HA-tagged arrestins and separated domains: co-expressed with ASK1 and JNK3 in COS7 cells
Description: COS-7 African green monkey cells were maintained in DMEM supplemented with 10% heat-inactivated FBS (Invitrogen), penicillin, and streptomycin at 37° C. in a humidified incubator with 5% CO2. The cells were plated at 80-90% confluence and transfected using Lipofectamine 2000 (Invitrogen) according to the manufacturer's instructions. Cells were used 48 h post-transfection and serum-starved overnight before experiments.
COS-7 cells were incubated with phosphatase inhibitors (50 mM NaF and 10 mM Na3VO4) in serum-free medium for 15 min at 37° C.; washed with cold PBS; and lysed with SDS lysis buffer containing 1% SDS, 10 mM Tris (pH7.4), 10 mM NaF, 100 μM Na3VO4, 2 mM EDTA, 2 mM benzamidine and 1 mM PMSF. JNKs activity was assayed by Western blotting using an antibody specific for phosphorylated JNK to detect phosphorylated (active) JNKs^17,20,23. Whole cell lysates were boiled for 5 min and centrifuged at 10,000×g for 10 min, and the supernatants were used for Western blotting. Protein was measured using the Bio-Rad Coomassie Blue assay. The proteins were resolved on 8% SD S-PAGE and transferred to PVDF membrane (Millipore, Bedford, Mass.). Blots were incubated with the primary antibodies (Cell Signaling Technology, Inc) anti-phospho-JNK, anti-JNK, anti-HA (6E2) (1:1000 to 1:5000), followed by appropriate HRP-conjugated secondary antibodies. Protein bands were detected by enhanced chemiluminescence (ECL, Pierce), followed by exposure to x-ray film. To quantify phospho-JNKs, serial dilutions of anisomycin (1 μg/ml)-stimulated HEK-A cell lysates were used to ensure that all samples were in linear range. The values for these proteins are expressed in arbitrary units.
The JNK3 activation was next tested in cells (See FIG. 7). COS7 cells were transfected with HA-ASK1, HA-JNK3α2, and YFP-arrestin constructs to measure in cell JNK3α2 activation. Phospho-JNK3 is shown as the uppermost band in the Western analysis, and was analyzed by densitometric quantification using Quantity One software (quantification in bottom panel). […] The data were statistically analyzed by ANOVA with protein as the main factor. Significance of the difference from control (p values) is indicated.
In Cell JNK3 Activation Assay COS7 African green monkey cells were sustained in DMEM solution containing 10% heat-inactivated FBS (Invitrogen), penicillin, and streptomycin at 37° C. and 5% CO2. Cells were transfected at 90-100% confluency in 6-well plates with pcDNA3-HA-ASK1 (0.4 ug), pcDNA3-HA-JNK3α2 (0.2 ug), and pcDNA3-Venus arrestin constructs (0.2-0.6 ug) at a 1:2 ratio of DNA:Lipofectamine 2000 (Invitrogen). At 48 hrs post-transfection, the cells were incubated with phosphatase inhibitors (20 mM NaF and 1 mM Na3VO4) in PBS for 15 mins, washed twice with cold PBS, and lysed using 50 mM Tris (pH 7.8), 2 mM EDTA, 250 mM NaCl, 10% Glycerol, 0.5% NP-40, 2 mM benzamide, and 1 mM PMSF. Protein concentration was measured using the Bio-Rad Quick Start™ Bovine Serum Albumin (BSA) Standard Set. The proteins were subjected to 10% SDS-PAGE and transferred to PVDF membrane (Millipore, Bedford, Mass.). Membranes were incubated with respective primary antibodies (Cell Signaling Technology, Inc.) anti-ASK1 (#3762S), anti-phospho-JNK (#9251), anti-SAPK/JNK (#9252P), anti-GST (#2625), or anti-HA (#3724), followed by the appropriate HRP-conjugated secondary antibodies. Bands were detected by x-ray film using enhanced chemiluminescence (ECL, Pierce) and quantification was done using the software Quantity One (BioRad).

[4] = tested on: hemiparkinsonian ARR3 KO mice; test: L-DOPA-induced rotations in hemiparkinsonian ARR3 KO mice; assay type: in vivo, mouse
Description: FIG. 10. Rescue of L-DOPA-induced rotations in ARR3 KO mice by T1A16. Data are shown as means±S.E.M. Mice were pre-tested for L-DOPA-induced rotations before receiving lentiviruses. Respective lentiviruses were injected into the dorsolateral striatum of ARR3 KO mice. WT mice received GFP. […] In contrast, selective expression of T1A16 in striatopallidal MSNs under control of the enkephaline (ENK) promoter was ineffective. […] Significance levels are by Bonferroni post hoc test across all testing sessions.
Next, arrestin-3-derived peptides T1A16 and T1A15 were investigated for activity in the animal model of L-DOPA-induced dyskinesia. It was shown that the peptides expressed as Venus fusions in the motor striatum of hemiparkinsonian mice via lentivirus-mediated gene transfer modulate the manifestations of L-DOPA-induced dyskinesia (LID). The mice lacking ARR3 have reduced LID, and restoration of ARR3 into the motor striatum via lentivirus-mediated gene transfer rescues LID in these animals.
as §1

[5] = biological target: MKK4-JNK3 module (Homo sapiens, UniProt P45985+P53779); details: previously found, reference 20; cited from earlier work
Sequence of MKK4-JNK3 module (P53779 whole entry, one chain of several): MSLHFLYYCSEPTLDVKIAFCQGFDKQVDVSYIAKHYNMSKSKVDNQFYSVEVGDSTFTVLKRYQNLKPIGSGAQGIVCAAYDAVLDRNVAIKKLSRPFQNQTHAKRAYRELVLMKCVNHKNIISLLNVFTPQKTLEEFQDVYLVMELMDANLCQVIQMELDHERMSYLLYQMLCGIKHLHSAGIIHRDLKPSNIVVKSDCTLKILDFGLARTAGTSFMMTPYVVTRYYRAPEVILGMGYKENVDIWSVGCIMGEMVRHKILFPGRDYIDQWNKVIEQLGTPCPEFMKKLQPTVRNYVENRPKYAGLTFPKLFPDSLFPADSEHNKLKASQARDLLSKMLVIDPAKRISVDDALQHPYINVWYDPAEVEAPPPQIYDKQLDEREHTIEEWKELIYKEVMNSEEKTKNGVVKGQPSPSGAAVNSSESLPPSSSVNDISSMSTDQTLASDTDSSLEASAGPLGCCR

[6] = biological target: T1, MKK4 (Homo sapiens, UniProt P45985); test: MBP pull-down of purified MKK4; assay type: binding; details: MBP pull-down, purified proteins
T1 sequence (P45985 1-399): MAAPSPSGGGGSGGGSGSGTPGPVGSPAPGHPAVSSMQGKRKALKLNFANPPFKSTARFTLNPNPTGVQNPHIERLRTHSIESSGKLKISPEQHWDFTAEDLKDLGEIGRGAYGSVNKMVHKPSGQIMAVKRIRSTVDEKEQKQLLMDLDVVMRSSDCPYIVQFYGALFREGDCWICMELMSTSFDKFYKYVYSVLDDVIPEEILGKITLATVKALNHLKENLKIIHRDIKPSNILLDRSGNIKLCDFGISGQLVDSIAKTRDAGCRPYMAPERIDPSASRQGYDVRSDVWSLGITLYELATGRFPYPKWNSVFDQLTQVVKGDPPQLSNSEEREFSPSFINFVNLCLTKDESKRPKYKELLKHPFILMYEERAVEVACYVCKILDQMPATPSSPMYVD
Description: T1A was expressed in E. coli as an MBP-fusion and purified it on an amylose column^23. The ability of purified GST-MKK4 or GST-MKK7 (FIG. 1A) to bind MBP-T1A immobilized on an amylose column was tested in an in vitro pull-down assay, where MBP and MBP-arrestin-3 served as negative and positive controls, respectively (FIG. 1B). MBP-T1A, but not control MBP, effectively retained both kinases (FIG. 1B). […] Next, it was tested whether T1A binds the uppermost kinase in the cascade, ASK1. Because ASK1 is not available in purified form, HA-tagged ASK1 and YFP-tagged T1A (using YFP as a control) were co-expressed in COS7 cells, lysed the cells, and immunoprecipitated YFP constructs with anti-GFP antibody (FIG. 1C).
To make MBP-fusions containing arrestin-2/3 elements, the cDNAs encoding arrestin fragments were subcloned into pMal-p2T (generous gift from Dr. Keiji Tanaka, Tokyo Institute of Medical Science) between Eco RI and Xho I sites in frame with MBP, as described^23. MBP-Arr3 (full-length arrestin-3) was created by subcloning the corresponding cDNA into pMal-p2T between Eco RI and Not I sites^23. All MBP-arrestin-3 fusion proteins contained the same […] (SEQ ID NO:29) linker between MBP and arrestin-3 or its fragments. The MBP protein used as negative control was purified using empty pMal-p2T vector containing the same linker with 10 additional residues: […] (SEQ ID NO:30). MBP fusions were purified, as described^23. MBP pull-down was performed, as described^23. Briefly, Indicated MBP fusions (10-30 μg in 50 μL 20 mM Tris/150 mM NaCl) were immobilized on amylose resin (25 μL, 50% slurry, New England Biolabs) for 1 h at 4° C. with slight rotation. Purified, as described^40, MKK4/7 (10 μg in 50 μL 20 mM Tris/150 mM NaCl) were added to the immobilized MBP fusions and rotated gently for 2 h at 4° C. Samples were transferred to centrifuge filters (Durapore®-PVDF-0.65 μm), washed three times with 50 mM HEPES-Na, pH 7.3, 150 mM NaCl. The proteins were eluted by 100 μl of elution buffer (wash buffer containing 50 mM maltose) by gentle rotation for 5 min at 4° C. Eluates were analyzed by SDS-PAGE and Western blotting.

[7] = biological target: MKK7-JNK3 module (Homo sapiens, UniProt O14733+P53779); details: previously found, reference 20; cited from earlier work
Sequence of MKK7-JNK3 module (O14733 whole entry): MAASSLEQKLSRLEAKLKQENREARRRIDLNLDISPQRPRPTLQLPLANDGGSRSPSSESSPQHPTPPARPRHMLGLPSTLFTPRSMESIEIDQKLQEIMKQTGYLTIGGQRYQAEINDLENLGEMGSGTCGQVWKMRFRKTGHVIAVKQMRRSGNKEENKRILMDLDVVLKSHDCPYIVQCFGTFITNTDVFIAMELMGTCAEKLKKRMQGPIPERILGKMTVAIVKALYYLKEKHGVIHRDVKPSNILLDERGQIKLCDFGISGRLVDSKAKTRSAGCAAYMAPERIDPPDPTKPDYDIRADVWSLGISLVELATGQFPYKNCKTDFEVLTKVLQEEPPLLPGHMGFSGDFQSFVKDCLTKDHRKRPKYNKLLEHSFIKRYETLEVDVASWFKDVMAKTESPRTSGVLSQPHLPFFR
Sequence of MKK7-JNK3 module (P53779 whole entry): as the sequence (P53779 whole entry, one chain of several) above

KKSSPNCKLTVYLG (bovine) [T1A14]
JNK activity on co-expression with full-length ARR3, comparison of shorter peptides [1]: marginally effective

TRVFKKSSPNCKLTV (bovine) [T1A15]
L-DOPA-induced rotations in WT mice [2]: able to suppress the rotational behavior
ARR3-dependent JNK activation at increasing peptide expression ([1]; Venus-T1A15 co-expressed with full-length ARR3): reducing arrestin-3-dependent activation of JNK3 as well as other JNK isoforms in a dose dependent manner
JNK activity on co-expression with full-length ARR3, comparison of shorter peptides [1]: effectively suppressed
in cell JNK3α2 activation (phospho-JNK3 densitometry) [3]: inhibit JNK3 activation

VFKKSSPNCKLTV (bovine) [T1A13]
JNK activity on co-expression with full-length ARR3, comparison of shorter peptides [1]: no effect

VFKKSSPNCKLTVYLG (bovine) [T1A16]
in cell JNK3α2 activation (phospho-JNK3 densitometry) [3]: facilitates JNK3 activation
JNK3 activation at increasing peptide expression ([3]; Example 3, T1A16-Venus expressed in Cos7 cells): dose-dependently activates JNK3
L-DOPA-induced rotations in ARR3 KO mice, expression in striatonigral MSNs ([4]; lentivirus, dynorphine (DYN) promoter): fully rescued rotations in A3KO mice
L-DOPA-induced rotations in ARR3 KO mice, expression in striatopallidal MSNs ([4]; lentivirus, enkephaline (ENK) promoter): ineffective
L-DOPA-induced rotations in ARR3 KO mice ([4]; peptide expressed in striatum via lentivirus, 6-hydroxydopamine lesion): fully restores rotations in ARR3 KO mice to the level of that in WT mice

arrestin-3: full-length arrestin-3 (bovine) protein, scaffold of ASK1-MKK4/7-JNK3 cascade
optimal concentration for scaffolding MKK4-JNK3 module [5]: ~0.6 µM
interaction with MKK4 compared with MKK7 [6]: stronger interaction with MKK4 than with MKK7
optimal concentration for scaffolding MKK7-JNK3 module [7]: ~6 µM
JNK activity on co-expression with full-length ARR3, comparison of shorter peptides [1]: induced the JNK activation
in cell JNK3α2 activation (phospho-JNK3 densitometry) [3]: facilitates JNK3 activation
JNK3 phosphorylation in cells, YFP fusions ([3]; YFP fusions co-expressed with JNK3 and ASK1 in COS7 cells): increased the level of JNK3 phosphorylation
JNK3 phosphorylation in cells, HA-tagged arrestins and separated domains [3]: significantly increases JNK3 phosphorylation in cells

B1: arrestin-2: full-length non-visual arrestin-2 protein, does not promote JNK3 activation (protein, UniProt P17870 1-418, looked up)
chain: MGDKGTRVFKKASPNGKLTVYLGKRDFVDHIDLVEPVDGVVLVDPEYLKERRVYVTLTCAFRYGREDLDVLGLTFRKDLFVANVQSFPPAPEDKKPLTRLQERLIKKLGEHAYPFTFEIPPNLPCSVTLQPGPEDTGKACGVDYEVKAFCAENLEEKIHKRNSVRLVIRKVQYAPERPGPQPTAETTRQFLMSDKPLHLEASLDKEIYYHGEPISVNVHVTNNTNKTVKKIKISVRQYADICLFNTAQYKCPVAMEEADDTVAPSSTFCKVYTLTPFLANNREKRGLALDGKLKHEDTNLASSTLLREGANREILGIIVSYKVKVKLVVSRGGLLGDLASSDVAVELPFTLMHPKPKEEPPHREVPEHETPVDTNLIELDTNDDDIVFEDFARQRLKGMKDDKEEEEDGTGSPRLNDR
modifications: full-length
JNK3 phosphorylation in cells, HA-tagged arrestins and separated domains [3]: does not
